Test results as given in paper PMC9054546, “Synthesis and molecular modeling studies of cholinesterase inhibitor dispiro[indoline-3,2′-pyrrolidine-3′,3′′-pyrrolidines]” (RSC Advances, 2020).
Values joined by “and” are separate entries in the source; they are usually repeats but may differ in a detail not shown here. Identical values can stand only once. Like-named read-outs stand apart in the source and are kept apart here.

How the values were obtained:
AChE [1] = target: T1, AChE (Homo sapiens, UniProt P22303); test: biochemical; details: for SI(AChE/BChE): selectivity index = IC50 (AChE)/IC50 (BChE)
T1 sequence (P22303 32-614): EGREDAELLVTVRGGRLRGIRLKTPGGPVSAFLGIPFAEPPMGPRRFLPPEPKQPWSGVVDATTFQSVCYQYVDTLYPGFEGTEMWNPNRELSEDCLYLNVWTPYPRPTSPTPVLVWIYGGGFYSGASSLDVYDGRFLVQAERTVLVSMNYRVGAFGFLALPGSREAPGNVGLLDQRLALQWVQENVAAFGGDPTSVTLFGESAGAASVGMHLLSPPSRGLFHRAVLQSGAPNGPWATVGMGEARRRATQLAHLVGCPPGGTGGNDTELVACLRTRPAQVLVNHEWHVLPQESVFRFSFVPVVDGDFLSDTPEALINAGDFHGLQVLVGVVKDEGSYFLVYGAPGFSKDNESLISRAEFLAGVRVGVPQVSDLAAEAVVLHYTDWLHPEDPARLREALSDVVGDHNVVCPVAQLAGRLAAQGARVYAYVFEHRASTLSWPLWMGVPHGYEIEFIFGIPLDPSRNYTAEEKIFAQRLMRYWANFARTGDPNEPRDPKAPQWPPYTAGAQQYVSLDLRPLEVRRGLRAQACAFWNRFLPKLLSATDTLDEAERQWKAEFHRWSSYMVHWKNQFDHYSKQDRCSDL
Method: Butyrylthiocholine iodide and acetylthiocholine were utilized as substrates in BChE and AChE assays, respectively, where DTNB was served as indicator. All compounds were dissolved in MeOH. […] Blank assays were performed by replacing the enzyme (20 μL) with buffer and their absorbances were recorded for correction of the spontaneous lysis of the indicator or inherent color of the inhibitor.
Selectivity index (SI) for acetyl and butyryl cholinesterases was calculated as follow:SI(AChE/BChE) = IC50 (AChE)/IC50 (BChE)SI(BChE/AChE) = […]

[2] = test system: RPE1 (human immortalized retinal pigment epithelial cell line); test: Antiproliferative/cytotoxicity MTT assay on normal cell line; type: cell-based; details: RPE-1, 72 h incubation, tested at 100, 50, 25 and 12.5 μM, read-out: IC50 against RPE1
Excerpt: Antiproliferative properties of the synthesized agents 8a–l were considered against RPE1 (human immortalized retinal pigment epithelial cell line) normal cell line utilizing the standard MTT (tetrazolium salt) technique.[37]
The synthesized agents 8a–l were screened against RPE1 (human immortalized retinal pigment epithelial cell line) normal cell line to investigate their cytotoxicity by the standard mitochondrial dependent reduction of yellow MTT [3-(4,5-dimethylthiazol-2-yl)-2,5-diphenyl-tetrazolium bromide] to purple formazan technique.[37] Cells were suspended in DMEM in addition to 1% antibiotic–antimycotic mixture (10 000 μg mL^−1 potassium penicillin, 10 000 μg mL^−1 streptomycin sulfate and 25 μg mL^−1 amphotericin B), 10% fetal bovine serum and 1% L-glutamine at 37 °C, under 5% CO2 and 95% humidity. Cells were seeded at concentration of 30 000 cells per well in fresh complete growth medium in 96-well tissue culture microtiter plates for 24 h. […] 0.5% DMSO was used as negative control. Triplicate wells were prepared for each individual dose. After 72 h of incubation, medium was aspirated, 40 μl MTT salt (2.5 mg mL^−1) were added to each well and incubated for further 4 h at 37 °C. To stop the reaction and dissolve the formed crystals, 150 μL of 10% sodium dodecyl sulfate (SDS) in deionized water were added to each well and incubated overnight at 37 °C.
Data were collected as mean values for experiments performed in triplicates for each individual dose which had been measured by MTT assay. […] The percentage of cell survival was calculated according to the following equation. [drawing 1]
Statistical calculations for determination of the mean and standard error values were determined by SPSS 16 software.

BChE [3] = target: T2, BChE (Homo sapiens, UniProt P06276); test: biochemical; details: for SI(BChE/AChE): selectivity index BChE/AChE
T2 sequence (P06276 29-602): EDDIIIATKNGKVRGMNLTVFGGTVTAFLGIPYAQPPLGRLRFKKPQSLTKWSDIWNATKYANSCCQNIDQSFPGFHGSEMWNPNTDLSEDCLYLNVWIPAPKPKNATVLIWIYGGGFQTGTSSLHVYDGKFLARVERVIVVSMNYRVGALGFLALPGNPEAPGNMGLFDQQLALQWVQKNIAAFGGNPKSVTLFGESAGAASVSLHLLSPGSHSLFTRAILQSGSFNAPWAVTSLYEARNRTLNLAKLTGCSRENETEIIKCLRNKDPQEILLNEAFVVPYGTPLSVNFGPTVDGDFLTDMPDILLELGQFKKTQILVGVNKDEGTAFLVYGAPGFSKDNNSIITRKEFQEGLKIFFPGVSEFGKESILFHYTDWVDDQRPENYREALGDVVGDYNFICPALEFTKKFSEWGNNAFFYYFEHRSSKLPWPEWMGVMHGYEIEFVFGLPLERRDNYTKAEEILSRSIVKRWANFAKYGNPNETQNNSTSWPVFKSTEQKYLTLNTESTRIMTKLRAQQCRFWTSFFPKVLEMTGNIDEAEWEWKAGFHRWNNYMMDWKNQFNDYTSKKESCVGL
Method: Butyrylthiocholine iodide and acetylthiocholine were utilized as substrates in BChE and AChE assays, respectively, where DTNB was served as indicator. All compounds were dissolved in MeOH. […] Blank assays were performed by replacing the enzyme (20 μL) with buffer and their absorbances were recorded for correction of the spontaneous lysis of the indicator or inherent color of the inhibitor. […]

BChE [4] = target: T2, BChE; test: 2D-QSAR (BMLR, CODESSA-Pro) model, BChE inhibitors; details: observed minus estimated IC50
Excerpt: (§1) The cholinesterase properties observed were undertaken by CODESSA-Pro software accessible for optimizing 2D-QSAR models.[39–41] This is useful for well understanding the bio-observations and identifying the parameters necessary for bio-potency. Three descriptor QSAR models were developed due to the AChE and BChE inhibitory properties of the synthesized dispiro-compounds 8a–l (ESI Tables S4–S9, Fig. S40 and S41, details of the QSAR descriptors are also mentioned in the ESI). ^† […]
(§2) Goodness of the QSAR models was supported by the comparative values of the correlation coefficient (R^2) with their cross validation of leave one-out (R^2cvOO) and leave many-out (R^2cvMO) [R^2 = 0.923, 0.979; R^2cvOO = 0.882, 0.936; R^2cvMO = 0.904, 0.956, for AChE and BChE models, respectively]. Standard deviation (s^2) and Fisher criteria (F) values of the models also support their goodness (s^2 = 0.026, 0.005; […]. Additionally, the correlations of the observed and predicted values “specially the high potent synthesized compounds” add good support for the attained models. […]
(§3) Molecular modeling studies
(§4) The synthesized dispiro[indoline-3,2'-pyrrolidine-3',3''-pyrrolidines] 8a‒l […]
(§5) 2D-QSAR modeling by CODESSA-Pro (comprehensive descriptors for structural and statistical analysis) software. Geometry of the compounds was initially optimized by AM1 technique using hyperChem 8.0 then, uploaded to CODESSA-Pro for final geometrical structure optimization by MOPAC.10‒12 CODESSA-Pro calculated 656 molecular descriptors (constitutional, topological, geometrical, charge-related, semi-empirical, thermodynamical, molecular-type, atomic-type and bond-type descriptors) for […]
(§6) the exported bio-active agents. Mathematical transformation of the experimental values […]
(§7) QSAR model. The best multi-linear regression (BMLR) technique was utilized which is a stepwise search for the best n-parameter regression equations (where n stands for the number of descriptors used), based on the highest R2 (squared correlation coefficient), R2cvOO (squared cross-validation “leave one-out, LOO” coefficient), R2cvMO (squared cross-validation “leave many-out up to 20% of the training set, LMO” coefficient), F (Fisher statistical significance criteria) values, and s2 (standard deviation). The QSAR up to 3-descriptor model describing the biological activity of the bio-active agents were generated (obeying the thumb rule of 4:1 which is the ratio between the data points and the number of QSAR descriptor).
(§8) Minimum (>0.1) bond order for atom C is an atomic type descriptor with the […]
(§9) why the higher descriptor value, the lower AChE inhibitory efficacy of the tested agent as […]
(§10) 2/SQRT(TMSA) (MOPAC PC) is a charge related descriptor with relatively high […]
(§11) . Compounds with high descriptor value predicted low AChE
(§12) 0.11715). HDCA2 (area weighed surface charge of hydrogen bonding donor atoms) can be calculated by equ. (1). 13
(§13) HDCA2 = D … .DtotH‒donor (1)
(§14) Where, standsSD for the solvent accessible surface area of H-bonding donor H atoms (selected by threshold charge), is the partialqD charge on H-bonding donor H atoms (selected by threshold charge) and is the totalStot solvent accessible molecular surface […]
(§15) Square root of surface area for atom C is also a charge related descriptor with […]
(§16) . For this reason, the higher descriptor value of […]
partial positively and negatively charged surface area can be calculated by equs. (2) and […]
PPSA3 = A … .. (2)A∈{δA>0}
PNSA3 = A … ..A∈{δA>0} (3)
Where, is the positively/negativelySA charged solvent accessible atomic surface area and qA is the atomic partial charge.
ZX Shadow/ZX rectangle is a geometrical descriptor with the highest coefficient […]
. The higher descriptor value of […]
compounds 8c and 8e, respectively). Relative shadow areas of a molecule can be determined by equ. (4). 13
Where, C is contour of the projection of the molecule on the plane defined by two principal axes of the molecule (k = XY, XZ or YZ plane), , , = X • ν –x or yρ –y or zS(k) […]
Maximum atomic state energy for atom O is an atomic type descriptor. […]

AChE [5] = target: T1, AChE; test: 2D-QSAR (BMLR, CODESSA-Pro) model, AChE inhibitors; details: observed minus estimated IC50
Excerpt: as §1, §2, §3, §4, §5, §6, §7, §8, §9, §10, §11, §12, §13, §14, §15, §16

[6] = 10 min incubation at 25 °C, read at 405 nm, read-out: IC50 of AChE (μM) ± SD
[7] = log transformation of the observed IC50, read-out: Observed log(IC50, μM), AChE (converted)
[8] = 10 min incubation at 25 °C, read at 405 nm, read-out: IC50 of BChE (μM) ± SD
[9] = log transformation of the observed IC50, read-out: Observed log(IC50, μM), BChE (converted)

Compound	IC50 (AChE [1]; [6]) [µM]	IC50 (AChE [1]; [7]) [µM]	SI(AChE/BChE) (AChE [1])	IC50 [2] [µM]	IC50 (BChE [3]; [8])	IC50 (BChE [3]; [9]) [µM]	SI(BChE/AChE) (BChE [3])	Error (difference between observed and estimated property values), BChE BMLR-QSAR model (BChE [4]) [µM]	Error (difference between observed and estimated property values), AChE BMLR-QSAR model (AChE [5]) [µM]
CN1CC(c2ccc(Cl)cc2)C2(CC(=O)N(c3ccc(Cl)cc3)C2=O)C12C(=O)Nc1ccc(Cl)cc12 (stereo not drawn) [Compound 8k, 5-Chloro-1′′,4′-bis(4-chlorophenyl)-1′-methyldispiro[indoline-3,2′-pyrrolidine-3′,3′′-pyrrolidine]-2,2′′,5′′-trione]	13.9	13.9	1.36	> 100	10.2 ± 0.76 µM	10.2	0.73	1.09	-0.82
COc1ccc(C2CN(C)C3(C(=O)Nc4ccc(Cl)cc43)C23CC(=O)N(c2ccccc2)C3=O)cc1 (stereo not drawn) [Compound 8f, 5-Chloro-4′-(4-methoxyphenyl)-1′-methyl-1′′-phenyldispiro[indoline-3,2′-pyrrolidine-3′,3′′-pyrrolidine]-2,2′′,5′′-trione]	12.3	12.3	0.61	> 100	20.1 ± 0.16 µM	20.1	1.64	1.88	1.32
COc1ccc2c(c1)C1(C(=O)N2)N(C)CC(c2ccccc2)C12CC(=O)N(c1ccccc1)C2=O (stereo not drawn) [Compound 8c, 5-Methoxy-1′-methyl-1′′,4′-diphenyldispiro[indoline-3,2′-pyrrolidine-3′,3′′-pyrrolidine]-2,2′′,5′′-trione]	103	103	1.43	> 100	71.7 µM	71.7	0.70	7.44	18.50
CN1CC(c2ccccc2)C2(CC(=O)N(c3ccc(Cl)cc3)C2=O)C12C(=O)Nc1ccc(Cl)cc12 (stereo not drawn) [Compound 8i, 5-Chloro-1′′-(4-chlorophenyl)-1′-methyl-4′-phenyldispiro[indoline-3,2′-pyrrolidine-3′,3′′-pyrrolidine]-2,2′′,5′′-trione]	39.4	39.4	1.12	> 100	35.1 µM	35.1	0.89	-3.48	-3.69
CN1CC(c2ccccc2)C2(CC(=O)N(c3ccccc3)C2=O)C12C(=O)Nc1ccc(Cl)cc12 (stereo not drawn) [Compound 8b, 5-Chloro-1′-methyl-1′′,4′-diphenyldispiro[indoline-3,2′-pyrrolidine-3′,3′′-pyrrolidine]-2,2′′,5′′-trione]	13.6 ± 0.62	13.6	0.32	> 100	42.5 µM and 42.4 µM	42.5	3.12	-6.64	0.13
COc1ccc2c(c1)C1(C(=O)N2)N(C)CC(c2ccc(Cl)cc2)C12CC(=O)N(c1ccc(Cl)cc1)C2=O (stereo not drawn) [Compound 8l, 1′′,4′-Bis(4-chlorophenyl)-5-methoxy-1′-methyldispiro[indoline-3,2′-pyrrolidine-3′,3′′-pyrrolidine]-2,2′′,5′′-trione]	22	22	0.62	> 100	35.54 ± 0.33 µM	35.5	1.62	-0.71	-7.93
CN1CC(c2ccc(Cl)cc2)C2(CC(=O)N(c3ccccc3)C2=O)C12C(=O)Nc1ccc(Cl)cc12 (stereo not drawn) [Compound 8d, 5-Chloro-4′-(4-chlorophenyl)-1′-methyl-1′′-phenyldispiro[indoline-3,2′-pyrrolidine-3′,3′′-pyrrolidine]-2,2′′,5′′-trione]	24.3 ± 4.08	24.3	1.14	> 100	21.3 µM	21.3	0.88	-5.91	13.92
